Consider 102 molecules from ChEMBL document CHEMBL3507680, “University of Dundee, Gates Library screen for HepG2 cell viability”.

This data set can be described thus: Human HepG2 cell viability assay in 384 well format. Type of data set: toxicity, cell-based. To be noted: HepG2 cells, read-out: Inhibition. More on the design: dose 125 nL, time 70.5 hour; cytotoxicity at 70.5 h: concentration not given beside the values.

Turning to `Cc1cc(CNc2ccc(C(=O)N3CCc4ccccc43)cn2)on1`, the cytotoxicity at 70.5 h is -1.24%. Next, `COCc1ccccc1C(=O)NCC(O)c1ccc(Cl)s1` (configuration not stated): 0.31%. To `Cc1ccc(C)c(C(=O)NC2CCC(N3C(=O)CCC3=O)CC2)c1` (configuration not stated) belongs 3.79%; to `Cc1[nH]ccc1C(=O)NC1CCC(N2C(=O)CCC2=O)CC1` (configuration not stated), -2.84%; to `Cc1ccc(F)c(C(=O)NC2CCC(N3C(=O)CCC3=O)CC2)c1` (configuration not stated), -0.936%.

As for `O=C(NC1CCC(N2C(=O)CCC2=O)CC1)c1c[nH]c2ccccc12` (configuration not stated), the cytotoxicity at 70.5 h is 10.8%. To `Cc1nn(C(C)(C)C)c(=O)n1CC(=O)NCC(F)(F)F` belongs 3.06%.

As for `COc1cc(C2(C(=O)N3CCN(CC(C)O)CC3)CC2)ccc1C` (configuration not stated), the cytotoxicity at 70.5 h is 10.5%.

Take `Cc1ccc(S(=O)(=O)CCC(=O)N(C)Cc2cnn(C)c2)cc1`: the cytotoxicity at 70.5 h is -73.6%. For the molecule `N#Cc1c(Cl)nsc1NCc1ccnc(OCC(F)(F)F)c1`, the cytotoxicity at 70.5 h was -44.2%. Next, `O=C(CNc1ccccc1Cl)Nc1cc(-n2cnnn2)ccc1F`: -117%.

In the case of `O=C(CCCOc1ccccc1F)NCCCC(=O)Nc1cn[nH]c1`, the cytotoxicity at 70.5 h was -3.66%. As for `Cc1cc(C)n(C2CN(CC(=O)N(C)Cc3ccco3)C2)n1`, the cytotoxicity at 70.5 h was -6.63%.

Turning to `Cc1cn2c(n1)CCC(NC(=O)CCOc1cccc(F)c1)C2` (configuration not stated), the cytotoxicity at 70.5 h is -4.07%.

Consider `CCOCC(=O)Nc1cccc(Oc2ccccn2)c1`, for which the cytotoxicity at 70.5 h was -3.31%. With `COCCN(Cc1cccnc1)S(=O)(=O)c1cccc(F)c1F`, the cytotoxicity at 70.5 h is 5.02%.

Turning to `Cc1ccc(CN(C)C(=O)Cn2nc(-c3ccc(F)cc3)oc2=O)cc1`, the cytotoxicity at 70.5 h is -7.04%. To `Cc1ccc(CS(=O)(=O)CC(=O)NCc2ccccc2F)cc1` belongs -15.5%; to `Cc1ccc(C(O)CNC(=O)c2cccnc2O)cc1` (configuration not stated), -12.1%; to `CCOc1ncccc1CNC(=O)CN1CCCCCC1=O`, 19.7%. `CC(C)Cc1noc(CN2CCN(C(=O)c3cccs3)CC2)n1`: the cytotoxicity at 70.5 h was -11.2%. Next, `Cc1cc(=O)n2ncnc2n1CC(O)c1ccccc1` (configuration not stated): -17.2%. To `Cc1ccccc1-c1cc(NC(=O)NC2CCC(O)CC2)n(CCO)n1` (configuration not stated) belongs -3.45%.

As to `CC(NC(=O)c1cc(-c2cccc(Cl)c2)no1)C(=O)N(C)C` (configuration not stated), the cytotoxicity at 70.5 h is -17.3%.

In the case of `Cc1cc(=O)n2ncnc2n1CC(O)c1cc(Cl)ccc1Cl` (configuration not stated), the cytotoxicity at 70.5 h was -22.2%. To `O=C(NC1CC1)c1cc(NC(=O)N2CCSCC2)ccc1Cl` belongs 15.9%; to `Cc1cc(=O)n2ncnc2n1CC(O)c1ccccc1F` (configuration not stated), -10.7%. Next, `CC(=O)N1CCN(C(=O)c2cnc(OC(C)C)c(Cl)c2)CC1`: -13.6%; `O=C(Cc1ccc2c(c1)OCO2)N1CCCN(c2nccs2)CC1`: -8.59%; `CCc1cc(NCc2cccnc2N2CCCCC2)n2ncnc2n1`: 0.666%. On to `CC(=O)N1CCCN(C(=O)c2cnc(OC(C)C)c(Cl)c2)CC1`, for which the cytotoxicity at 70.5 h is -11.9%. `O=C(Cc1ccc2c(c1)OCO2)N1CCN(c2ccncc2)CC1`: the cytotoxicity at 70.5 h was -9.91%. To `CC(C)NC(=O)CCN1CCC(C(=O)c2cc(F)ccc2F)CC1` belongs -7.21%; to `CC(CN1CCCC1=O)NC(=O)c1cc(-c2cccc(Cl)c2)no1` (configuration not stated), -18.5%; to `Cc1ccc(C(=O)N2CCSCC2)cc1NC(=O)NCC1CCC1`, -7.96%.

As for `Cc1n[nH]c(C2CN(C(=O)c3ccc(Cl)o3)CCO2)n1` (configuration not stated), the cytotoxicity at 70.5 h was -11.1%. To `Cc1n[nH]c(C2CN(C(=O)c3ccon3)CCO2)n1` (configuration not stated) belongs -10.2%.

For the molecule `CC1CN(C(=O)Nc2ccc(Cl)c(C(=O)NC3CC3)c2)CC(C)(C)O1` (configuration not stated), the cytotoxicity at 70.5 h is -7.92%. On to `N#Cc1cccc(CNc2cc(CO)ccc2Cl)c1`, for which the cytotoxicity at 70.5 h is -15.1%. Next, `O=C(c1cccnc1O)N(Cc1cccs1)CC1CCCO1` (configuration not stated): -11.9%; `CN(C)C(=O)Cc1nc(CN2CCCC2Cn2cccn2)cs1` (configuration not stated): -6.16%. To `CC(C)Cc1noc(CN2CCCN(C(=O)c3ccccc3Cl)CC2)n1` belongs 4.22%; to `CN(Cc1nnc(C2CC2)n1C)C1CCN(Cc2ccccc2)C1` (configuration not stated), 17.5%. To `Cc1cc(N2CCN(C(=O)c3cc(Cl)c[nH]3)CC2)nc(C(C)C)n1` belongs -7.83%; to `Cc1cc(F)ccc1S(=O)(=O)N(C)CC(N)=O`, -6.18%.

`Cc1ccsc1C(=O)Nc1cnn(CC(=O)NC2CCCC2)c1`: the cytotoxicity at 70.5 h stood at 23.1%.

Consider `COC(=O)c1ccc(S(=O)(=O)N(C)CC(N)=O)c(Cl)c1`, for which the cytotoxicity at 70.5 h was -3.22%.

On to `Cc1cc(C(=O)Nc2cnn(CC(=O)NC3CCCC3)c2)c(C)s1`, for which the cytotoxicity at 70.5 h was -6.94%. For `Cc1noc(C)c1CNC(=O)N1CCC(CN2CCC(C)CC2)CC1`, the cytotoxicity at 70.5 h is -2.8%. On to `Cc1cc(N2CCN(C(=O)c3cc(Cl)c[nH]3)CC2)nc(C)n1`, for which the cytotoxicity at 70.5 h is -4.7%. For the molecule `Cc1cccc(N2CCN(C(=O)CN3CCC(C(N)=O)CC3)CC2)c1`, the cytotoxicity at 70.5 h was -2.32%.

Regarding `CCN(c1ccc(C(=O)Nc2c(C)nn(C(C)C)c2C)cc1)C(C)C`, the cytotoxicity at 70.5 h is -7.4%. Turning to `CCOc1cc(C)nc(N2CCN(C(=O)c3cc(Cl)c[nH]3)CC2)n1`, the cytotoxicity at 70.5 h was -8.74%. To `NC(=O)NC(=O)CCN(Cc1ccccc1)CC1CCOCC1` belongs -2.94%; to `Cc1noc(C)c1CNC(=O)N1CCC(NS(C)(=O)=O)CC1`, -3.15%; to `Cc1ccc(C(=O)Nc2cnn(CC(=O)NC3CCCC3)c2)c(=O)[nH]1`, -3.7%. Next, `Cc1ccc(OCC(=O)NCc2ccco2)nc1`: -2.92%. Consider `CCN(CC)c1ccc(NS(=O)(=O)c2cnn(C(C)C)c2)cn1`, for which the cytotoxicity at 70.5 h is -6.47%. As to `Cc1ccc(OCC(=O)NCC(F)(F)F)nc1`, the cytotoxicity at 70.5 h was -4.18%.

Consider `COCCCN1CCC(NC(=O)C2CC2)CC1`, for which the cytotoxicity at 70.5 h was -4.57%.

With `CC(C)(C)c1cnc(CNCC2CCCN2c2cccnn2)o1` (configuration not stated), the cytotoxicity at 70.5 h came to 18.8%. Next, `CN(Cc1nnc(C2CC2)n1C)C1CCN(CCS(C)(=O)=O)C1` (configuration not stated): -6.94%. To `CCN(CC)C(=O)CN(C)CCn1nc2ccccn2c1=O` belongs -4.24%. Turning to `CC(=O)N1CCCN(CCn2nc3ccccn3c2=O)CC1`, the cytotoxicity at 70.5 h was -0.882%.

Consider `N#Cc1ncn(CCC(=O)Nc2ccc(F)c(F)c2)n1`, for which the cytotoxicity at 70.5 h is -9.3%. To `CCC(=O)Nc1ccc(C(C)NC(=O)COC)cc1` (configuration not stated) belongs -9.08%. On to `O=C(NCCCN1CCOCC1)c1cc(-c2ccccc2)[nH]n1`, for which the cytotoxicity at 70.5 h is -1.59%.

Take `CC(=O)N(c1ccc(C)cc1)c1nc(CN2CCCC(C)C2)cs1` (configuration not stated): the cytotoxicity at 70.5 h was 12.3%. To `O=C(CCc1ccccn1)N1CCSC2(CCCCC2)C1` belongs 3.22%. Regarding `CC(C)=CCN1CCN(C(C)c2cccnc2)CC1` (configuration not stated), the cytotoxicity at 70.5 h was -1.42%.

In the case of `Cc1ccc(CNC(=O)CN(C)CC2CCN(CCO)CC2)s1`, the cytotoxicity at 70.5 h stood at 2.24%. Take `CC(c1cccnc1)N1CCN(CCCC#N)CC1` (configuration not stated): the cytotoxicity at 70.5 h stood at 15%. To `COc1cccc(SCC(=O)N2CCC(N3CCCC3=O)CC2)c1` belongs -6.36%; to `CCN(Cc1ccoc1)C(C(N)=O)c1ccc(C#N)cc1` (configuration not stated), -1.21%. As to `COc1ncccc1C(=O)N1CCCC1c1c(C)n[nH]c1C` (configuration not stated), the cytotoxicity at 70.5 h was 37.5%. Next, `C1CCC(NCC2(N3CCOCC3)CCSC2)C1` (configuration not stated): 14.2%; `CC(=O)c1ccc(S(=O)(=O)N2CCCC2CN2CCCC2)cc1` (configuration not stated): -8.94%; `CS(=O)(=O)c1nnc(NC(=O)CCc2cc(F)ccc2F)[nH]1`: -14.9%. With `CC(=O)N(C)c1nc(CN2CCN(c3nccs3)CC2)cs1`, the cytotoxicity at 70.5 h is -5.68%. For the molecule `Cc1nnc(N2CCN(C(=O)NC3CC3)CC2)c(C(N)=O)c1C`, the cytotoxicity at 70.5 h was -15.7%. Next, `Cc1ccsc1CNC(=O)Nc1ccn(CCN2CCOCC2)n1`: 14.8%. Next, `O=C1CCc2cc(S(=O)(=O)NC(=O)c3ccc4c(c3)COC4)ccc2N1`: -12.1%; `CSc1ccc(NC(=O)Cc2cccc(O)c2)nc1`: -20.9%; `CN(C(=O)c1ccco1)C1CCC(NC(=O)OC(C)(C)C)CC1` (configuration not stated): -6.4%. Next, `CN(C(=O)c1ccc[nH]1)C1CCC(NC(=O)OC(C)(C)C)CC1` (configuration not stated): -17.5%; `COCc1ccc(C(=O)NS(=O)(=O)c2ccc3c(c2)CCC(=O)N3)cc1`: 17.1%. Take `CC(=O)N1CCc2ccc(S(=O)(=O)N3CCCCC3C)cc21` (configuration not stated): the cytotoxicity at 70.5 h came to 0.13%. In the case of `CN(Cc1ccc([S+](C)[O-])cc1)c1ccccn1` (configuration not stated), the cytotoxicity at 70.5 h is -10.9%. With `O=C(Nc1cc(CSCCO)ccn1)c1ccc(Cl)o1`, the cytotoxicity at 70.5 h was -10.5%. Next, `Cc1ccsc1CNC(=O)CC1CN(C(=O)OC(C)(C)C)C1`: -9.31%. For `CCNC(=O)CN1CCSC2(CCCCC2)C1`, the cytotoxicity at 70.5 h was -11.1%. With `CNS(=O)(=O)CCCN1CCCCCC1c1ccc(C)o1` (configuration not stated), the cytotoxicity at 70.5 h was -11%. As to `Cc1cscc1C(=O)Nc1cc(CSCCO)ccn1`, the cytotoxicity at 70.5 h is -3.95%.

As to `Cc1cccc2nc(CSCc3nnnn3C(C)C)cn12`, the cytotoxicity at 70.5 h was -14.3%. Next, `COCCN(Cc1ccco1)Cc1nc(-c2ccccc2)no1`: 19.2%. As for `Cc1nc(-c2ccccc2C)n(CC(=O)NC(C)C2CC2)n1` (configuration not stated), the cytotoxicity at 70.5 h was -5.7%. To `Cc1nc(C)n(CC2CCCN2c2ncnc3c2CCC3)n1` (configuration not stated) belongs 15.2%; to `CCCC(C#N)NC(=O)Cc1csc(CC)n1` (configuration not stated), -0.509%; to `COCCSc1ccc(C(C)NC(=O)Nc2cn[nH]c2)cc1` (configuration not stated), -6.86%.

Take `Cc1nc(-c2ccccc2)n(CC(=O)NC(C2CC2)C2CC2)n1`: the cytotoxicity at 70.5 h was -4.87%. Next, `Cc1ccsc1CNc1ccc(C(=O)N2CCNC(=O)C2)cn1`: -2.58%. Regarding `Cc1noc(C)c1CN(C)Cc1nc(N)c2ccccc2n1`, the cytotoxicity at 70.5 h was 13.8%.
